CN(C)CCC=C1c2ccccc2CCc2ccccc21.Cl
solubility (mole fraction)
Conditions	278.15 K	283.15 K	288.15 K	293.15 K	298.15 K	303.15 K	308.15 K	313.15 K	318.15 K	323.15 K
in 2-butoxyethanol	0.0451	0.0494	0.0531	0.0595	0.066	0.0722	0.0793	0.0864	0.0942	0.102
in 2-ethoxyethanol	0.084	0.0895	0.0954	0.101	0.108	0.115	0.123	0.132	0.141	0.151
in 2-methoxyethanol	0.127	0.132	0.138	0.143	0.149	0.155	0.162	0.169	0.177	0.185
in 2-propoxyethanol	0.06	0.0641	0.0686	0.075	0.0814	0.0881	0.0955	0.103	0.111	0.119
in DMF	0.0295	0.0323	0.0354	0.0388	0.0423	0.0466	0.0509	0.0557	0.0611	0.0674
in NMP	0.0311	0.0342	0.0372	0.0412	0.0448	0.0492	0.0543	0.0594	0.0652	0.0716
in ethanol	0.0337	0.0423	0.0528	0.0653	0.0794	0.0938	0.108	0.122	0.136	0.148
in methanol	0.144	0.152	0.16	0.168	0.175	0.183	0.189	0.196	0.202	0.207
in n-butanol	0.0148	0.0187	0.0242	0.0316	0.0405	0.0508	0.0628	0.0765	0.091	0.105
in n-heptanol	0.0101	0.0124	0.0151	0.0184	0.0225	0.0274	0.0333	0.0402	0.0484	0.0581
in n-hexanol	0.0116	0.0145	0.0176	0.0217	0.027	0.0332	0.0407	0.0492	0.0595	0.0712
in n-octanol	0.00215	0.00267	0.00322	0.00388	0.00471	0.00568	0.00688	0.00824	0.00991	0.012
in n-pentanol	0.0127	0.0162	0.02	0.025	0.0321	0.04	0.0497	0.0613	0.0743	0.0887
in n-propanol	0.0218	0.028	0.0357	0.0453	0.0572	0.0708	0.0855	0.101	0.117	0.131
